Results reported in the NIST ThermoML archive (doi:10.1021/je900596d).

Conditions: 357.01 K, Liquid, Vibrating tube method

FC(F)=C(F)C(F)(F)F [hexafluoropropene]
Conditions | mass density [kg/m3]
3815.9 kPa | 942.63
3841.4 kPa | 944.76
3866.1 kPa | 946.85
3891.2 kPa | 948.86
3916.1 kPa | 950.85
3941.3 kPa | 952.87
3966.7 kPa | 954.74
3992.1 kPa | 956.67
4032.7 kPa | 959.68
4052.9 kPa | 961.12
4073.2 kPa | 962.41
4094 kPa | 963.87
4114.8 kPa | 965.29
4135 kPa | 966.6
4155.1 kPa | 967.92
4175.4 kPa | 969.27
4195.5 kPa | 970.62
4215.6 kPa | 971.88
4258.3 kPa | 974.59
4279.4 kPa | 975.81
4299.6 kPa | 977.03
4320.4 kPa | 978.34
4340.8 kPa | 979.7
4361.8 kPa | 980.83
4383.2 kPa | 982.1
4404.3 kPa | 983.28
4445.8 kPa | 985.59
4467.1 kPa | 986.71
4488.7 kPa | 987.99
4929.3 kPa | 1009.65
4970.6 kPa | 1011.35
5012.8 kPa | 1013.28
5053.2 kPa | 1015.04
5094.4 kPa | 1016.71
5178.4 kPa | 1020.12
5218.9 kPa | 1021.7
5262 kPa | 1023.52
5302.8 kPa | 1025.13
5344.2 kPa | 1026.56
5426.4 kPa | 1029.68
5468.6 kPa | 1031.33
5509.4 kPa | 1032.71
5595.1 kPa | 1035.91
5636.8 kPa | 1037.33
5678.3 kPa | 1038.78
5720.2 kPa | 1040.29
5761.9 kPa | 1041.7
5802.7 kPa | 1043
5844 kPa | 1044.41
5885.2 kPa | 1045.79
5926.3 kPa | 1047.08
5966.4 kPa | 1048.43
6079.9 kPa | 1052.05
6121.3 kPa | 1053.27
6161.6 kPa | 1054.49
6202.1 kPa | 1055.73
6242.6 kPa | 1057.02
6283 kPa | 1058.17
6323.7 kPa | 1059.35
6365.4 kPa | 1060.53
6405.9 kPa | 1061.73
6446.1 kPa | 1062.93
6487.1 kPa | 1063.92
6527.7 kPa | 1065.18
6568.3 kPa | 1066.33
6649.5 kPa | 1068.55
6689.8 kPa | 1069.61
6730.6 kPa | 1070.82
6771.8 kPa | 1071.89
6812.8 kPa | 1072.89
6854 kPa | 1074.05
6894.2 kPa | 1075.07
6976.2 kPa | 1077.12
7016.9 kPa | 1078.17
7059.1 kPa | 1079.19
7099.3 kPa | 1080.34
7141 kPa | 1081.32
7182 kPa | 1082.35
7223.7 kPa | 1083.32
7265.2 kPa | 1084.37
7306.5 kPa | 1085.33
7391.5 kPa | 1087.34
7432.1 kPa | 1088.27
7472.8 kPa | 1089.26
7514.5 kPa | 1090.2
7555.9 kPa | 1091.18
7596.5 kPa | 1092.11
7637.6 kPa | 1093.07
7760.7 kPa | 1095.83
7802.6 kPa | 1096.76
7843.1 kPa | 1097.59
7885.2 kPa | 1098.49
7925.7 kPa | 1099.42
7967.5 kPa | 1100.24
8050.7 kPa | 1102.02
8094 kPa | 1102.97
8134 kPa | 1103.77
8175.6 kPa | 1104.71
8217.3 kPa | 1105.6
8258 kPa | 1106.39
8301 kPa | 1107.38
8342.7 kPa | 1108.09
8385.4 kPa | 1108.93
8428.9 kPa | 1109.88
8510.3 kPa | 1111.46
8552.8 kPa | 1112.27
8592.9 kPa | 1113.04
8634.2 kPa | 1113.83
8675.9 kPa | 1114.7
8717.3 kPa | 1115.43
8760 kPa | 1116.3
8843.1 kPa | 1117.91
8884.8 kPa | 1118.68
8926.5 kPa | 1119.39
8969.2 kPa | 1120.21
9010.2 kPa | 1120.94
9055 kPa | 1121.82
9096.9 kPa | 1122.57
9138.6 kPa | 1123.29
9223.4 kPa | 1124.87
9264.9 kPa | 1125.67
9307.3 kPa | 1126.46
9350.7 kPa | 1127.19
9393 kPa | 1127.83
9476.5 kPa | 1129.45
9518.3 kPa | 1130.09
9558.9 kPa | 1130.8
9598.9 kPa | 1131.49
9640.9 kPa | 1132.16
9683.8 kPa | 1132.95
9726.5 kPa | 1133.66
9769.9 kPa | 1134.38
9810.5 kPa | 1135.04
